According to patent US5543422A, “Heterocyclic amines” (British Technology Group Limited, priority 1992, dated 1996):
Where a name gives a salt, the structure may show the parent alone.

Target: T1, calmodulin (Bos taurus, UniProt P62157)
T1 construct: a sufficient amount of bovine brain calmodulin; from tissue; host or cells: bovine brain (calmodulin); bovine heart (PDE)
Assay: inhibition of calmodulin activation of cyclic nucleotide phosphodiesterase (PDE), hydrolysis of [3H] cAMP
Format: biochemical, bovine
Details: Table 1; mean ± S.E. of three assays; * (β CHCH 4 6) mean of two; read-out: IC50 in μM (x ± SE)

Row | IC50 [µM] | SMILES
1 | 39.1 ± 8.9 | c1ccc2c(OCCCCCN3CCCCC3)cccc2c1 [α 5 CH2]
2 | 22.1 ± 3 | c1ccc2cc(SCCCCCN3CCCCC3)ccc2c1 [β 5 piperdine]
3 | 2.2 ± 0.3 | C(=Cc1ccc2ccccc2c1)CCCCN1CCCCC1 [β CHCH 4 6, N-6-(naphth-2-yl)hex-5-enylpiperidine oxalate]

Same assay, conditions: Table 2; mean ± S.E. of three assays; * (α 3 CH2, β 2 CH2, β 3 CH2, α 3 0, β 2 0) mean of two; read-out: IC50 in μM (x ± SE)

Row | IC50 [µM] | SMILES
4 | 53.9 ± 1.6 | c1ccc2cc(OCCCCCN3CCCCC3)ccc2c1 [β 5 CH2]
5 | 217 ± 24.7 | c1ccc2c(OCCCN3CCOCC3)cccc2c1 [α 3 0]
6 | 29.2 ± 1.4 | c1ccc2cc(OCCCN3CCCCC3)ccc2c1 [β 3 CH2]
7 | 28.5 ± 2 | c1ccc2c(OCCCCCCN3CCCCC3)cccc2c1 [α 6 CH2]
8 | 152 ± 18.8 | c1ccc2c(OCCN3CCCCC3)cccc2c1 [α 2 CH2]
9 | 53.2 ± 10.5 | c1ccc2c(OCCCCN3CCOCC3)cccc2c1 [α 4 0]
10 | 4.7 ± 0.3 | c1ccc2c(OCCCCCCCN3CCCCC3)cccc2c1 [α 7 CH2, N-7-(naphth-1-yloxy)heptylpiperidine hydrochloride]
11 | > 250 | c1ccc2c(OCCN3CCOCC3)cccc2c1 [α 2 0]
12 | 5.3 ± 0.3 | c1ccc2c(OCCCCCCCCN3CCCCC3)cccc2c1 [α 8 CH2]
13 | > 250 | c1ccc2cc(OCCCN3CCOCC3)ccc2c1 [β 3 0]
14 | 106 ± 18 | c1ccc2c(OCCCN3CCCCC3)cccc2c1 [α 3 CH2]
15 | > 250 | c1ccc2cc(OCCN3CCOCC3)ccc2c1 [β 2 0]
16 | 7.4 ± 0.5 | c1ccc2c(OCCCCN3CCCCC3)cccc2c1 [α 4 CH2, -4-(naphth-1-yloxy)butylpiperidine oxalate]
17 | 42.3 ± 9.1 | c1ccc2c(OCCCCCN3CCOCC3)cccc2c1 [α 5 0]
18 | 55.8 ± 6 | c1ccc2cc(OCCCCN3CCCCC3)ccc2c1 [β 4 CH2]
19 | 85.6 ± 7 | c1ccc2cc(OCCCCN3CCOCC3)ccc2c1 [β 4 0]
20 | 72.7 ± 9.4 | c1ccc2cc(OCCCCCN3CCOCC3)ccc2c1 [β 5 0]
21 | > 250 | c1ccc2cc(OCCN3CCCCC3)ccc2c1 [β 2 CH2]

Same assay, conditions: Table 3; mean ± S.E. of three assays; * (β 6 piperdine) mean of two; read-out: IC50 in μM (x ± SE)

Row | IC50 [µM] | SMILES
22 | 77.7 ± 4.1 | c1ccc2cc(SCCCN3CCCCC3)ccc2c1 [β 3 piperdine]
23 | 18 ± 1.3 | c1ccc2cc(SCCCCN3CCCC3)ccc2c1 [β 4 pyrrolidine]
24 | 12.5 ± 1.5 | c1ccc2cc(SCCCCCCN3CCCCC3)ccc2c1 [β 6 piperdine]
25 | 20.1 ± 2.25 | c1ccc2cc(SCCCCCN3CCOCC3)ccc2c1 [β 5 morpholine]
26 | 23.6 ± 1.6 | c1ccc2c(SCCCCN3CCCCC3)cccc2c1 [α 4 piperdine]
27 | 12.3 ± 2.6 | c1ccc2cc(SCCCCN3CCCCC3)ccc2c1 [β 4 piperdine]

Same assay, conditions: Table 4, heteroatoms in the side chain; mean ± S.E.; read-out: IC50 in μM (x ± SE)

Row | IC50 [µM] | SMILES
28 | 41.7 ± 6.2 | c1ccc2c(OCCSCCN3CCCCC3)cccc2c1
29 | 11.5 ± 1.6 | c1ccc2c(CCNCCCCCN3CCCCC3)cccc2c1

Same assay, conditions: Table 5, effect of base strength of the terminal amine; mean ± S.E.; read-out: IC50 in μM (x ± S.E.)

Row | IC50 [µM] | SMILES
30 | 3.85 ± 0.2 | NCCCCOc1cccc2ccccc12 [NH2]
31 | 4 ± 0.2 | c1ccc2c(OCCCCN3CCCC3)cccc2c1 [pyrrolidine, N-4-(naphth-1-yloxy)butylpyrrolidine]
32 | 68.3 ± 6.7 | c1ccc2c(OCCCCn3ccnc3)cccc2c1 [imidazole]

Same assay, conditions: Table 6, halogen substitution on the naphthalene ring; mean ± S.E.; read-out: IC50 in μM (x ± SE)

Row | IC50 [µM] | SMILES
33 | 9.3 ± 2 | Brc1ccc2cc(OCCCCN3CCCCC3)ccc2c1

Same assay, conditions: Table 7, effect of the aryl moiety; mean ± S.E. of three assays; * (drawing 9 6 pyrrolidine) mean of two; read-out: IC50 in μM (x ± SE)

Row | IC50 [µM] | SMILES
34 | 0.22 ± 0.04 | c1cc(OCCCCCCN2CCCC2)c2ccsc2c1 [drawing 8 6 pyrrolidine, N-6-(benzo[b]thien-4-yloxy)hexylpyrrolidine]
35 | 0.88 ± 0.14 | c1cc(OCCCCN2CCCC2)c2ccsc2c1 [drawing 8 4 pyrrolidine, N-4-(benzo[b]thien-4-yloxy)butylpyrrolidine]
36 | 55.3 ± 10 | Clc1ccc(OCCCCN2CCCCC2)cc1Cl
37 | 204 ± 13.3 | c1cc(OCCCCCCN2CCCC2)c2occc2c1 [drawing 9 6 pyrrolidine]
38 | 70.1 ± 8.6 | c1cc(OCCCCN2CCCCC2)c2occc2c1 [drawing 9 4 piperdine]
39 | 1.8 ± 0.6 | c1cc(OCCCCN2CCCCC2)c2ccsc2c1 [drawing 8 4 piperdine, N-[4-(benzo[b]thien-4-yloxy)butyl]piperidine oxalate]
40 | 0.38 ± 0.1 | c1cc(OCCCCCCN2CCCCC2)c2ccsc2c1 [drawing 8 6 piperdine, N-6-(benzo[b]thien-4-yloxy)hexylpiperidine]

Same assay, conditions: various concentrations

Row | effect on calmodulin-activated PDE | SMILES
41 | none was found | O=C(O)C(=O)O [oxalic acid]

Tested on: calmodulin-independent PDE
Assay: inhibition of calmodulin-independent activity of PDE
Format: biochemical, bovine
Details: various concentrations
Procedure: The assay was based on the incubation of calmodulin-deficient bovine heart PDE with [^3 H] cyclic adenosine monophosphate (cAMP), and a sufficient amount of bovine brain calmodulin (12.5 ng/100 μl) to give 70-80% activation of the enzyme. The resultant [^3 H] 5'-AMP formed was hydrolysed to [3H] adenosine upon incubation with the 5'-nucleotidase of the Western Diamondback Rattlesnake (Crotalus atrox). The nucleoside was then separated from the unreacted substrate using anion exchange resin. […] The degree of inhibition of calmodulin-activation of PDE in the presence of a range of drugs was expressed as a percentage of the activity of calmodulin-activated PDE in the absence of any drug. […] To give an indication of any inhibition of PDE by compounds, the activity of PDE in the presence of two concentrations of compound (approximately ten fold difference) were included in the assay. As there was no significant difference in the activity of PDE with or without the drug it was concluded that there was no inhibition of calmodulin-independent PDE by the drugs at the concentrations used. The percentage inhibition recorded for calmodulin-activated PDE was therefore due solely to the action of the drugs on the activity of calmodulin.

Row | SMILES | effect on PDE
42 | O=C(O)C(=O)O [oxalic acid] | none was found

Tested on: not listed separately
Assay: base strength (pka) of the terminal amine
Format: physicochemical
Details: Table 5, terminal amine

Row | pKa | SMILES
43 | 7.41 | c1ccc2c(OCCCCN3CCOCC3)cccc2c1 [α 4 0]
44 | 10.6 | NCCCCOc1cccc2ccccc12 [NH2]
45 | 10.1 | c1ccc2c(OCCCCN3CCCCC3)cccc2c1 [α 4 CH2, -4-(naphth-1-yloxy)butylpiperidine oxalate]
46 | 10.3 | c1ccc2c(OCCCCN3CCCC3)cccc2c1 [pyrrolidine, N-4-(naphth-1-yloxy)butylpyrrolidine]
47 | 7.33 | c1ccc2c(OCCCCn3ccnc3)cccc2c1 [imidazole]
